# Patent publication US20250215029A1 (Recludix Pharma, Inc., priority 2022, published 2025)
# pIC50: −log10 of the molar value.
# Biological target: T1, pY641-STAT6 in PBMC (Homo sapiens, UniProt P42226)
# T1 construct: Cryopreserved Peripheral Blood Mononuclear Cells (PBMC) are from AllCells; host or cells: cryopreserved PBMC
# T1 sequence (P42226 1-847): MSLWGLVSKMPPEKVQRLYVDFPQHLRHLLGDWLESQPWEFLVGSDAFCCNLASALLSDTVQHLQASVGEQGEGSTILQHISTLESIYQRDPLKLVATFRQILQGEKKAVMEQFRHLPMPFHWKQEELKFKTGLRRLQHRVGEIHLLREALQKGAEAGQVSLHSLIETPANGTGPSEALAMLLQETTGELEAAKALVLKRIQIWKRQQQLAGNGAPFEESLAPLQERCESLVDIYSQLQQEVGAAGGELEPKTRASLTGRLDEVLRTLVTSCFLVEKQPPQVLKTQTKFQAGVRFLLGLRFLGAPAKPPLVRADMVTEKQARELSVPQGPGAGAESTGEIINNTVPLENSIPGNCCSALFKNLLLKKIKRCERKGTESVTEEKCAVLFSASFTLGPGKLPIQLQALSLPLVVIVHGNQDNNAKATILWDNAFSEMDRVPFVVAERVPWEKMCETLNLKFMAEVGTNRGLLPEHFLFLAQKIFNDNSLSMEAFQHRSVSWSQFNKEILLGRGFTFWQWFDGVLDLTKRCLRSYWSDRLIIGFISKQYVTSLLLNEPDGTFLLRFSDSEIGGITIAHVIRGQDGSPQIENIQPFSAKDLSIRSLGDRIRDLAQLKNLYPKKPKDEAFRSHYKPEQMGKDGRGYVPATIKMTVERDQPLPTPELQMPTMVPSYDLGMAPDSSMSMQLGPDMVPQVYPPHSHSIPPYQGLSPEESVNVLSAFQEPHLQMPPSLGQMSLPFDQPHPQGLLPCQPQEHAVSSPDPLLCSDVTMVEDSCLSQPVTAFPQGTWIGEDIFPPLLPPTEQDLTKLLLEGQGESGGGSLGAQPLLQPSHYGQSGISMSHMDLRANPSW
# Experiment: MSD-pSTAT-PBMC Assay (pSTAT6, IL-4 stimulated)
# Assay type: cell-based
# Details: PBMC, compound 3 hrs, then 1 ng/mL IL-4 for 10 min; Table 115; read-out: STAT6
# How it was run: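 Inhibition of cytokine-induced STAT phosphorylation was measured in recovered human PBMC after 3 hrs compound exposure and a 10 min IL-4 (1 ng/mL) or IL-6 (10 ng/mL) challenge. MSD detection of pY641-STAT6 or pY705-STAT3 yielded IC50 values.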
row,SMILES,pIC50
1,CCCOC(=O)[C@H](C)NP(=O)(Oc1ccccc1)[C@@H](F)c1ccc2sc(C(=O)N[C@H]3CCCC[C@H]4CC[C@@H](C(=O)N5C[C@H](c6cccc(Cl)c6)[C@@H](C#N)C56CC6)N4C3=O)cc2c1 (stereo partly shown) [Compound 344],> 7.00
2,CCCOC(=O)[C@H](C)NP(=O)(Oc1ccccc1)[C@@H](F)c1ccc2sc(C(=O)N[C@H]3CCCC[C@H]4CC[C@@H](C(=O)N5C[C@H](c6cccc(Cl)c6)[C@@H](C#N)C56CC6)N4C3=O)cc2c1 (stereo partly shown) [Compound 345],> 7.00

# Same assay, conditions: STAT6, PBMC, compound 3 hrs, then 1 ng/mL IL-4 for 10 min; Table 115
row,SMILES,pIC50
1,"CCCOC(=O)[C@H](C)NP(=O)(Oc1ccccc1)[C@@H](F)c1ccc2sc(C(=O)N[C@H]3CCCC[C@H]4CC[C@@H](C(=O)N5C(=O)N(c6ccc(C)nc6)C(=O)C56CC6)N4C3=O)cc2c1 (stereo partly drawn) [Compound 328, propyl (((R)-fluoro(2-(((3S,6S,10aS)-3-(6-(6-methylpyridin-3-yl)-5,7-dioxo-4,6-diazaspiro[2.4]heptane-4-carbonyl)-5-oxodecahydropyrrolo [1,2-a]azocin-6-yl)carbamoyl)benzo [b]thiophen-5-yl)methyl)(phenoxy)phosphoryl)-L-alaninate]",6.00 to 7.00
2,"CCCOC(=O)[C@H](C)NP(=O)(Oc1ccccc1)[C@@H](F)c1ccc2sc(C(=O)N[C@H]3CCCC[C@H]4CC[C@@H](C(=O)N5C(=O)N(c6ccc(OC)nc6)C(=O)C56CC6)N4C3=O)cc2c1 (stereo partly drawn) [Compound 329, propyl (((R)-fluoro(2-(((3S,6S,10aS)-3-(6-(6-methoxypyridin-3-yl)-5,7-dioxo-4,6-diazaspiro[2.4]heptane-4-carbonyl)-5-oxodecahydropyrrolo [1,2-a]azocin-6-yl)carbamoyl)benzo [b]thiophen-5-yl)methyl)(phenoxy)phosphoryl)-L-alaninate]",< 5.52
3,"CCCOC(=O)[C@H](C)NP(=O)(Oc1ccccc1)[C@@H](F)c1ccc2sc(C(=O)N[C@H]3CCCC[C@H]4CC[C@@H](C(=O)N5C(=O)N(c6cncc(C(F)(F)F)c6)C(=O)C56CC6)N4C3=O)cc2c1 (stereo partly drawn) [Compound 330, propyl (((R)-(2-(((3S,6S,10aS)-3-(5,7-dioxo-6-(5-(trifluoromethyl)pyridin-3-yl)-4,6-diazaspiro[2.4]heptane-4-carbonyl)-5-oxodecahydropyrrolo [1,2-a]azocin-6-yl)carbamoyl)benzo [b]thiophen-5-yl)fluoromethyl) (phenoxy)phosphoryl)-L-alaninate]",< 5.52
4,"CCCOC(=O)[C@H](C)NP(=O)(Oc1ccccc1)[C@@H](F)c1ccc2sc(C(=O)N[C@H]3CCCC[C@H]4CC[C@@H](C(=O)N5C(=O)N(c6cncc(OC)c6)C(=O)C56CC6)N4C3=O)cc2c1 (stereo partly drawn) [Compound 331, propyl (((R)-fluoro(2-(((3S,6S,10aS)-3-(6-(5-methoxypyridin-3-yl)-5,7-dioxo-4,6-diazaspiro[2.4]heptane-4-carbonyl)-5-oxodecahydropyrrolo [1,2-a]azocin-6-yl)carbamoyl)benzo [b]thiophen-5-yl)methyl)(phenoxy)phosphoryl)-L-alaninate]",5.52 to 6.00
5,"CCCOC(=O)[C@H](C)NP(=O)(Oc1ccccc1)[C@@H](F)c1ccc2sc(C(=O)N[C@H]3CCCC[C@H]4CC[C@@H](C(=O)N5C(=O)N(c6ccc(C(F)F)nc6)C(=O)C56CC6)N4C3=O)cc2c1 (stereo partly drawn) [Compound 332, propyl (((R)-(2-(((3S,6S,10aS)-3-(6-(6-(difluoromethyl)pyridin-3-yl)-5,7-dioxo-4,6-diazaspiro[2.4]heptane-4-carbonyl)-5-oxodecahydropyrrolo [1,2-a]azocin-6-yl)carbamoyl)benzo [b]thiophen-5-yl)fluoromethyl) (phenoxy)phosphoryl)-L-alaninate]",< 5.52
6,"CCCOC(=O)[C@H](C)NP(=O)(Oc1ccccc1)[C@@H](F)c1ccc2sc(C(=O)N[C@H]3CCCC[C@H]4CC[C@@H](C(=O)N5C(=O)N(c6cncc(C(F)F)c6)C(=O)C56CC6)N4C3=O)cc2c1 (stereo partly drawn) [Compound 333, propyl (((R)-(2-(((3S,6S,10aS)-3-(6-(5-(difluoromethyl)pyridin-3-yl)-5,7-dioxo-4,6-diazaspiro[2.4]heptane-4-carbonyl)-5-oxodecahydropyrrolo [1,2-a]azocin-6-yl)carbamoyl)benzo [b]thiophen-5-yl)fluoromethyl) (phenoxy)phosphoryl)-L-alaninate]",< 5.52
7,"CCCOC(=O)[C@H](C)NP(=O)(Oc1ccccc1)[C@@H](F)c1ccc2sc(C(=O)N[C@H]3CCCC[C@H]4CC[C@@H](C(=O)N5C(=O)N(c6cnccc6C)C(=O)C56CC6)N4C3=O)cc2c1 (stereo partly drawn) [Compound 334, propyl (((R)-fluoro(2-(((3S,6S,10aS)-3-(6-(4-methylpyridin-3-yl)-5,7-dioxo-4,6-diazaspiro[2.4]heptane-4-carbonyl)-5-oxodecahydropyrrolo [1,2-a]azocin-6-yl)carbamoyl)benzo [b]thiophen-5-yl)methyl)(phenoxy)phosphoryl)-L-alaninate]",> 7.00
8,"CCCOC(=O)[C@H](C)NP(=O)(Oc1ccccc1)[C@@H](F)c1ccc2sc(C(=O)N[C@H]3CCC[C@H]4CC[C@@H](C(=O)N5C[C@@H](c6ccn(C)c(=O)c6)CC56CC6)N4C3=O)cc2c1 (stereo partly drawn) [Compound 346, propyl (((R)-fluoro(2-(((3S,6S,9aS)-3-((R)-6-(1-methyl-2-oxo-1,2-dihydropyridin-4-yl)-4-azaspiro[2.4]heptane-4-carbonyl)-5-oxooctahydro-1H-pyrrolo[1,2-a]azepin-6-yl)carbamoyl)benzo [b]thiophen-5-yl)methyl)(phenoxy)phosphoryl)-L-alaninate]",> 7.00
9,"CCCOC(=O)[C@H](C)NP(=O)(Oc1ccccc1)[C@H](F)c1ccc2ccc(C(=O)N[C@H]3CCCC[C@H]4CC[C@@H](C(=O)N5C[C@H](c6ccccc6)[C@@H](C#N)C56CC6)N4C3=O)cc2c1 (stereo partly drawn) [Compound 347, propyl (((S)-(7-(((3S,6S,10aS)-3-((6S,7R)-7-cyano-6-phenyl-4-azaspiro[2.4]heptane-4-carbonyl)-5-oxodecahydropyrrolo [1,2-a]azocin-6-yl)carbamoyl)naphthalen-2-yl)fluoromethyl) (phenoxy)phosphoryl)-L-alaninate]",> 7.00
10,"COCCOC(=O)[C@H](COC)NP(=O)(Oc1ccccc1)[C@H](F)c1ccc2sc(C(=O)N[C@H]3CCC[C@H]4CC[C@@H](C(=O)N5C[C@H](c6ccccc6)[C@@H](C#N)C56CC6)N4C3=O)cc2c1 (stereo partly drawn) [Compound 348, 2-methoxyethyl N-(((S)-(2-(((3S,6S,9aS)-3-((6S,7R)-7-cyano-6-phenyl-4-azaspiro[2.4]heptane-4-carbonyl)-5-oxooctahydro-1H-pyrrolo[1,2-a]azepin-6-yl)carbamoyl)benzo [b]thiophen-5-yl)fluoromethyl) (phenoxy)phosphoryl)-O-methyl-L-serinate]",> 7.00
11,"CCCOC(=O)[C@H](C)NP(=O)(Oc1ccccc1)[C@H](F)c1ccc2sc(C(=O)N[C@H]3C[C@@H](C)C[C@H]4CC[C@@H](C(=O)N5C[C@H](c6ccccc6)[C@@H](C#N)C56CC6)N4C3=O)cc2c1 (stereo partly drawn) [Compound 349, propyl (((S)-(2-(((3S,6S,8R,9aR)-3-((6S,7R)-7-cyano-6-phenyl-4-azaspiro[2.4]heptane-4-carbonyl)-8-methyl-5-oxooctahydro-1H-pyrrolo[1,2-a]azepin-6-yl)carbamoyl)benzo [b]thiophen-5-yl)fluoromethyl) (phenoxy)phosphoryl)-L-alaninate]",> 7.00
